Data published in patent US20200000752A1, “Method for Treating Epilepsy” (Vanderbilt University, priority 2016, published 2020).

Key:
CYP 2C9 = CYP 2C9 (Homo sapiens, UniProt P11712); test: biochemical
CYP 2D6 = CYP 2D6 (Homo sapiens, UniProt P10635); test: biochemical
GABAergic mIPSCs = GABAergic mIPSCs in cortical layer VI pyramidal neurons of Gabrg2+/Q390X mice; format: in vivo, mouse
From the text: […]. This effect is consistent with its upregulation of GABAA receptor subunits. There is no difference between the decay tau (time constant) in the condition treated with celastrol vs non treated. (n=7-9 cells from 3 mice in each group, *P<0.05, ** P<0.01 vs het).
Coronal ([…]) or horizontal ([…] thick) brain slices containing thalamic neurons in nucleus reticularis thalami (nRT), ventrobasal nucleus (VBn), Ventral lateral thalamus (VL) and cortex will be sectioned with a vibratome in ice-cooled solution containing (in mM) 214 Sucrose, 2.5 KCl, 1.25 NaH2PO4, 0.5 CaCl2), 10 MgSO4, 24 NaHCO3, and 11 D-glucose, pH 7.4 bubbled with 95% O2/5% CO2 at 4° C. Slices are then incubated in oxygenated artificial cerebrospinal fluid (ACSF)^40 at 36° C. for 30 min (Moyer and Brown, 1998). After this, slices will be kept at room temperature for at least 1 hr before recording on a Nikon Eclipse FN-1 IR-DIC microscope at room temperature. Pipette internal solution will contain (in mM): 135 CsCl, 10 EGTA, 10 HEPES, 5 ATP-Mg, and QX-314 (5 mM) (pH 7.25, 290-295 mOsm), and resistances will be of 2-4 MΩ (25). Tetrodotoxin (TIX) 1 μm will be added to the external solution. We will record the neurons in layer V-VI in somatosemsory cortex in this application. The experimental details have been described before^39.

CYP 1A2 = CYP 1A2 (Homo sapiens, UniProt P05177); test: biochemical
[1] = Tolerability of repeated daily IP dosing in mice; format: in vivo
CYP 2C8 = CYP 2C8 (Homo sapiens, UniProt P10632); test: biochemical
CYP 2C19 = CYP 2C19 (Homo sapiens, UniProt P33261); test: biochemical
Scn1a^+/− mice = test: Early intermittent dosing, survival of Scn1a+/- mice; format: in vivo, mouse; details: 0.3 mg/kg intermittent from postnatal day 7; untreated ~60% mortality by week 7
From the text: (FIG. 5B, C). Gabrg2^+/Q390X mice in C57/BL/6J background had ˜25% of mortality (B) while Scn1a^+/− mice in C57/BL/6J background had ˜60% of mortality by week 7 (C). […] The Gabrg2^+/Q390X mice were in C57/BL/6J background while Scn1a^+/− sires were from mixed S129/C57BL/6J and the dams were congenic C57/BL/6J. For each mouse model, heterozygous pups of both male and female from 6-8 litters were included.

[2] = test system: synaptic scaffold protein gephyrin; test: Gephyrin staining in brain sections of Gabrg2+/Q390X mice; format: in vivo, mouse; details: 0.3 mg/kg for 14 days
From the text: Synaptosomes from mouse forebrains were isolated by subcellular fractionation^7. The samples were then fractionated by SDS-PAGE and immunoblotted by rabbit polyclonal anti-γ2 subunit antibody and synaptic scaffold proteins including gephyrin, collybistin, synaptogamin 1 and neuroligin II. The γ2 subunit protein and synaptic scaffold proteins were reduced in the Gabrg2^+/Q390X (het) mice. (FIG. 18A). […] The sections were then stained with rabbit anti-γ2 subunit (green) and mouse monoclonal anti-gephyrin (red) antibodies. The nuclei were stained with TO-PRO-3. (FIG. 18B). The raw fluorescence values of gephyrin was measured by ImageJ. […] (FIG. 18C).

[3] = Hepatic microsomal clearance (mouse); format: in vitro ADME; details: liver microsomes, pH 7.4
Description: Intrinsic clearance and predicted hepatic clearance: Intrinsic clearance will be determined using the substrate depletion approach. Reactions (0.3 mL) will be conducted using a Tecan EVO (San Jose, Calif.) in 96-well polypropylene cluster tubes with a temperature controlled water-jacketed aluminum plate holder held at 37° C. Incubations will be performed in triplicate in 0.1 M potassium phosphate buffer (pH 7.4), 3 mM MgCl2, 1 μM tizanidine, and 1 mg/mL liver microsomes. After incubation mixtures are equilibrated for 3 min at 37° C., reactions will be initiated with 10 mM NADPH to give a final NADPH concentration of 1 mM. At 0, 3, 7, 15, 25, and 45 min, a 25 μL aliquot will be removed from the reactions and delivered into 125 μL of acetonitrile containing an internal standard. The quench plates will then be centrifuged at 3,000×g for 10 min and an aliquot of the supernatants added to an injection plate with an equal volume of water. Samples will then be analyzed using LC/MS/MS.
Intrinsic clearance is calculated as: […]
Species-specific parameters for mouse and human liver protein content will be used. The predicted hepatic clearance will then be estimated using species-specific liver blood flow values: […]

heat shock protein Hsp70 = test: Hsp70 expression by high throughput flow cytometry in HEK 293T cells; format: cell-based; details: 4 hrs before harvest
From the text: HEK 293T cells were transfected with α1, β2 and wild-type γ2S (wt) or the mutant γ2S(Q390X) (mut) subunits for 48 hrs (FIG. 16). […] The cells were permeabilized and stained with monoclonal hsp70 (1:200) which was then conjugated with Alexa 647.

Sequence of CYP 2C9 (P11712 whole entry): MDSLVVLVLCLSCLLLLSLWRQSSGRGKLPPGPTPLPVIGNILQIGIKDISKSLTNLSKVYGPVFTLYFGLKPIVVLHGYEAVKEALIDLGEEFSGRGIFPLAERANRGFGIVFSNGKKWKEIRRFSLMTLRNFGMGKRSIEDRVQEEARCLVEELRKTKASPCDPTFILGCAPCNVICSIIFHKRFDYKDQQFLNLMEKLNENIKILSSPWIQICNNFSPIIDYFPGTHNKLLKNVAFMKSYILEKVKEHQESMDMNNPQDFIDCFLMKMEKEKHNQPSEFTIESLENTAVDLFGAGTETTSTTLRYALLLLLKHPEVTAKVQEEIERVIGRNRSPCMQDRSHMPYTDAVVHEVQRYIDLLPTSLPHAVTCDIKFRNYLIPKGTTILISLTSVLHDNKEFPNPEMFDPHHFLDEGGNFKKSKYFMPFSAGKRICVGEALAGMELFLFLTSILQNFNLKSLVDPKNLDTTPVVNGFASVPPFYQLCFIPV
Sequence of CYP 2D6 (P10635 whole entry): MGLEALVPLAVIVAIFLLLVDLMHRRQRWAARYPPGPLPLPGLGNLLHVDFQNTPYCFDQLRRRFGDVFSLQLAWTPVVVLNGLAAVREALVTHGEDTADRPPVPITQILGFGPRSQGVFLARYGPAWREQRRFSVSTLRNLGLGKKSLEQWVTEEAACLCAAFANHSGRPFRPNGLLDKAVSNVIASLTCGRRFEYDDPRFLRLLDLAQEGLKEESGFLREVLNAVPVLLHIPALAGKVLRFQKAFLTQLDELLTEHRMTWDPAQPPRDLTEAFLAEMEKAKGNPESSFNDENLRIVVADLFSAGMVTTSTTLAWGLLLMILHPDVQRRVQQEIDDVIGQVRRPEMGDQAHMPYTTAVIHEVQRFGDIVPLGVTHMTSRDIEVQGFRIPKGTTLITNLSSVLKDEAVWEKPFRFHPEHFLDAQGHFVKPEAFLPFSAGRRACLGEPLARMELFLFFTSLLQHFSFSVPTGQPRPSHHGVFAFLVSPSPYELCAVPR
Sequence of CYP 2C19 (P33261 whole entry): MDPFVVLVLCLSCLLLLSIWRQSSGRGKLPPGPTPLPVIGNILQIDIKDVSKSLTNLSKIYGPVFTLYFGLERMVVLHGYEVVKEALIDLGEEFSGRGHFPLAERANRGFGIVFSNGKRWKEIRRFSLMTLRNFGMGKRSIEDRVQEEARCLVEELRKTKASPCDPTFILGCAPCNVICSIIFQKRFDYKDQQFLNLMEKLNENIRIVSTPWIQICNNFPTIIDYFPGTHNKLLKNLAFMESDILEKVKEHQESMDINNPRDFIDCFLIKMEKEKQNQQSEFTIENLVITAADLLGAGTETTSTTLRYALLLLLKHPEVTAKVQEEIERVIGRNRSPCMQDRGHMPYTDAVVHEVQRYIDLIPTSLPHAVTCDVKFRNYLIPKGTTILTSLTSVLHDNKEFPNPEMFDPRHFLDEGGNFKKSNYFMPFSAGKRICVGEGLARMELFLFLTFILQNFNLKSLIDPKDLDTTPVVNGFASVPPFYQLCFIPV
Sequence of CYP 2C8 (P10632 whole entry): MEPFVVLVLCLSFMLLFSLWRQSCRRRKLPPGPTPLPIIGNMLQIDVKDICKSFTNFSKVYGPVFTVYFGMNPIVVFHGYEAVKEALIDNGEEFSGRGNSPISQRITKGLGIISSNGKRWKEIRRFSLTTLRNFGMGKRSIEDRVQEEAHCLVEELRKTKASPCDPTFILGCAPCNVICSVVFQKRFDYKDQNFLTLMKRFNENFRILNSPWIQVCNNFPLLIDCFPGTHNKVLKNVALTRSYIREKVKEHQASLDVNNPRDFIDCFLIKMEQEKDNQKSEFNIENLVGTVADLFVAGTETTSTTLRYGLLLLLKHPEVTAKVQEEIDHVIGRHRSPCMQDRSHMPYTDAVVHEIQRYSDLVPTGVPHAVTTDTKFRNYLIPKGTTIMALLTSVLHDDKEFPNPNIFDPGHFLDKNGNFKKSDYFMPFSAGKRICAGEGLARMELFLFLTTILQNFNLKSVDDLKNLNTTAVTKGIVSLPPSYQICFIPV
Sequence of CYP 1A2 (P05177 whole entry): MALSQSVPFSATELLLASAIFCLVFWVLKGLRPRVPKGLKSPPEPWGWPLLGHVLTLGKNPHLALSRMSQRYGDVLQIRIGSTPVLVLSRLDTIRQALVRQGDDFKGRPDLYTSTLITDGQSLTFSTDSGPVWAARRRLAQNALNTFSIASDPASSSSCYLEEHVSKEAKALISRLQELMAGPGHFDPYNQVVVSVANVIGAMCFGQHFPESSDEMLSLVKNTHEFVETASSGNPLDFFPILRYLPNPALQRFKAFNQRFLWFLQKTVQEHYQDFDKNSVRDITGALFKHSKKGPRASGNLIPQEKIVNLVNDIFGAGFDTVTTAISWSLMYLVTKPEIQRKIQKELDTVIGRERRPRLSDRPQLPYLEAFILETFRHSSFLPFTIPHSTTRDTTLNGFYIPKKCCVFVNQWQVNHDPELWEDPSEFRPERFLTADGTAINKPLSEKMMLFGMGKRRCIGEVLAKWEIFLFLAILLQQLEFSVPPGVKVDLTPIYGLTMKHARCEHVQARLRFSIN

SMILES: CC1=C(O)C(=O)C=C2C1=CC=C1[C@@]2(C)CC[C@@]2(C)[C@@H]3C[C@](C)(C(=O)O)CC[C@]3(C)CC[C@]12C [Celastrol, 3-Hydroxy-9β,13α-dimethyl-2-oxo-24,25,26-trinoroleana-1(10),3,5,7-tetraen-29-oic acid]
- IC50 (CYP 2C9): 4.88 µM
- IC50 (CYP 2D6): > 10 µM
- amplitude of GABAergic mIPSCs (GABAergic mIPSCs; 0.3 mg/kg IP for 14 days): increased
- frequency of GABAergic mIPSCs (GABAergic mIPSCs; 0.3 mg/kg IP for 14 days): increased
- decay tau (time constant) (GABAergic mIPSCs; treated vs non treated): no difference
- IC50 (CYP 1A2): > 10 µM
- adverse signs ([1]; 3 and 6 mg/kg IP daily, Gabrg2^+/Q390X mice): lethargy, unkempt fur
- adverse signs ([1]; IP 3 mg/kg daily for 5 days, starting at day 4): lethargy, unkempt fur and weight loss
- tolerability ([1]; IP 0.3, 0.6 and 1.5 mg/kg daily for 7 days, C57BL/6J mice): tolerated well
- adverse effect at doses other than 3 and 6 mg/kg ([1]; IP daily 2 weeks or oral gavage 14 days): no adverse effect
- IC50 (CYP 2C8): 2.19 µM
- IC50 (CYP 2C19): > 10 µM
- survival (Scn1a^+/− mice): completely rescued the survival
- gephyrin puncta [2]: increased gephyrin puncta
- CLint scaled [3]: 160 mL/min/kg
- expression of Hsp70 (heat shock protein Hsp70): Increased
